Measurements as given in patent publication US20240285551A1, “A SMALL MOLECULE TNF-a INHIBITOR AND PREPARATION METHOD AND USE THEREOF” (FUDAN UNIVERSITY, priority 2021, published 2024).

Tests used:
[1] = tested on: chronic ulcerative colitis model in IL-10 whole gene knockout mice; experiment: chronic ulcerative colitis in IL-10 whole gene knockout mice (survival, body weight, colon length, H&E pathology); format: in vivo
Method: (§1) Ten C57 mice (aged 10-12 weeks, around 20 g) with an identified genotype of Wildtype were taken as the normal control group. […] The mice were administered by gavage once a day with a volume of 10 mL/kg, wherein the normal control group and DSS group were gavaged with a solvent of 0.5% CMC-Na while the other groups were separately gavaged with drugs dissolved in 0.5% CMC-Na.
(§2) After dissection, the colon of each mouse was taken and the length of the colon was measured separately.

[2] = tested on: DSS induced acute ulcerative colitis model in C57 mice; experiment: DSS induced acute ulcerative colitis in C57 mice (body weight, DAI, colon length, H&E pathology); format: in vivo; settings: for colon length recovery rate (inhibition of colon shortening) / recovery rate of colon pathological sections (H&E) / body weight recovery rate / DAI score inhibition ratio: gavage once a day; for body weight recovery rate / DAI score inhibition ratio: day 7
Method: (§3) Except for the normal group, all other groups of mice were allowed to freely drink a 3% DSS solution which was freshly prepared and replaced the next day (wherein the 3% DSS solution was prepared by weighing 3 g of a DSS powder (from MP Biomedicals, USA with a molecular weight of 36,000 to 50,000) and fully dissolving it in 100 mL of the drinking water for the mice); whereas the normal group was given blank drinking water; the control group mice drank water normally for 7 days, while the DSS group mice drank the 3% DSS solution freely for 7 days and were administrated for 6 days from the second day DSS was given. The mice were administered by gavage once a day with a volume of 10 mL/kg, wherein the normal control group and DSS group were gavaged with a solvent of 0.5% CMC-Na (wherein a 0.5% CMC-Na solution is at a concentration of 0.5 g/100 mL, the same below), while the other groups were separately gavaged with drugs dissolved in 0.5% CMC-Na.
The normal control group mice were vivacious with glossy fur, stable weight gain, and normal stools appearing elliptical or spindle shaped.
In order to further evaluate the disease development for each group of acute UC mice, we performed DAI scoring on the loose and bloody stools etc. for each mouse (see panel B1 in FIG. 3). […] As the experiment progressed, the disease became gradually worsened, with some animals experiencing severe bloody stools and significant emaciation.
as §2

TNF-α [3] = experiment: colon tissue TNF-α mRNA by qPCR, DSS acute UC mice; format: in vivo; settings: 10 mg/kg
Method: as §3
(§4) After dissection, a segment of the colon was taken from the same part of each mouse, total RNAs were extracted from tissues, and mRNA expressions of such inflammatory factors as TNF-α, IL-1β, IL-6, and IL-23 in colon tissues of the mice were detected through qPCR.

IL-1β [4] = experiment: serum IL-1β protein by ELISA, DSS acute UC mice; format: in vivo; settings: 10 mg/kg
Method: as §3

IL-6 [5] = experiment: serum IL-6 protein by ELISA, DSS acute UC mice; format: in vivo; settings: 10 mg/kg
Method: as §3
(§5) To investigate the effects of compounds (R)-STU104, (S)-STU104, and (±)-STU104 on the secretion of such inflammatory factors as TNF-α, IL-1β, IL-6, and IL-23 by mice of the DSS induced acute ulcerative colitis model in C57 mice, we isolated serum after blood acquisition and detected the contents of such inflammatory factors as TNF-α, IL-1β, IL-6, and IL-23 in the serum of mice using ELISA.

IL-23 [6] = experiment: colon tissue IL-23 mRNA by qPCR, IL-10 knockout chronic UC mice; format: in vivo
Method: as §1, §4

TNF-α [7] = experiment: serum TNF-α protein by ELISA, DSS acute UC mice; format: in vivo; settings: 10 mg/kg
Method: as §3, §5

TNF-α [8] = experiment: release of the inflammatory factor TNF-α by LPS induced macrophages (RAW264.7), RT-PCR; format: cell-based; settings: Mus musculus, RAW264.7, LPS 1 μg/ml, 24 hours, read-out: IC50 with respect to the release of the inflammatory factor TNF-α
Method: LPS (1 μg/ml) and different concentrations of (±)-STU104 or (R)-STU104 (0.1 to 50 μM) were added respectively after the cells grew to a fused state, and incubated together at 37° C. under 5% CO2 for 24 hours. A blank control group was established, and RT-PCR was employed to detect the inhibition states of TNF-α in cells by these compounds.

[9] = tested on: Mnk1, MK2, and elF4E in the p38 signaling pathway; experiment: western blotting of phosphorylation of p38 signaling pathway proteins in LPS induced RAW264.7 cells; format: cell-based; settings: RAW264.7, 3.125, 6.25 and 12.5 μM, LPS 500 μg/L
Description: (§6) To further clarify the inhibitory mechanism of (R)-STU104 on TNF-α release, we detected the effects of (R)-STU104 on phosphorylation levels of proteins related to the p38 signaling pathway (see FIG. 2). The p38 inhibitor (SB203580) was used as a positive control, and western blotting was used to detect protein expression levels.

IL-23 [10] = experiment: serum IL-23 protein by ELISA, DSS acute UC mice; format: in vivo; settings: 10 mg/kg
Method: as §3, §5

TNF-α [11] = experiment: colon tissue TNF-α mRNA by qPCR, IL-10 knockout chronic UC mice; format: in vivo
Method: as §1, §4

TAK1 = experiment: western blotting of TAK1 phosphorylation (upstream kinase of MKK3); format: cell-based
Description: as §6

IL-6 [12] = experiment: colon tissue IL-6 mRNA by qPCR, DSS acute UC mice; format: in vivo; settings: 10 mg/kg
Method: as §3, §4

IL-6 [13] = experiment: colon tissue IL-6 mRNA by qPCR, IL-10 knockout chronic UC mice; format: in vivo
Method: as §1, §4

IL-23 [14] = experiment: colon tissue IL-23 mRNA by qPCR, DSS acute UC mice; format: in vivo; settings: 10 mg/kg
Method: as §3, §4

TNF-α [15] = experiment: serum TNF-α protein by ELISA, IL-10 knockout chronic UC mice; format: in vivo
Method: as §1
(§7) To investigate the effects of (R)-STU104 on the secretion of such inflammatory factors as TNF-α, IL-1β, IL-6, and IL-23 by spontaneous IBD mice due to IL-10 knockout, we isolated serum after blood acquisition and detected the contents of such inflammatory factors as TNF-α, IL-1β, IL-6, and IL-23 in the serum of mice using ELISA.

IL-1β [16] = experiment: serum IL-1β protein by ELISA, IL-10 knockout chronic UC mice; format: in vivo
Method: as §1, §7

IL-23 [17] = experiment: serum IL-23 protein by ELISA, IL-10 knockout chronic UC mice; format: in vivo
Method: as §1, §7

IL-6 [18] = experiment: serum IL-6 protein by ELISA, IL-10 knockout chronic UC mice; format: in vivo
Method: as §1, §7

IL-1β [19] = experiment: colon tissue IL-1β mRNA by qPCR, IL-10 knockout chronic UC mice; format: in vivo
Method: as §1, §4

IL-1β [20] = experiment: colon tissue IL-1β mRNA by qPCR, DSS acute UC mice; format: in vivo; settings: 10 mg/kg
Method: as §3, §4

[21] = positive drug group, dose not given

## Nc1ccc(O)c(C(=O)O)c1 [mesalazine, reference compound]
[1]; [21]
  recovery rate of colon pathological sections (H&E): 44.3%
  total mortality rate: no deaths occurred
[2]; 50 mg/kg
  colon length recovery rate (inhibition of colon shortening): 26.4%
  recovery rate of colon pathological sections (H&E): 38.0%
  body weight recovery rate: 7%

## COc1ccc([C@H]2CC(=O)c3cc(OC)cc(OC)c32)cc1 [(R)-STU104, 4,6-dimethoxy-3R-(4-methoxyphenyl)-2,3-dihydro-1H-indanone]
TNF-α [3]
  inhibition ratio of TNF-α mRNA in colon tissues: 64.8%
[1]; high-dose group (10 mg/kg)
  efficiency of weight gain (body weight recovery): 19.4%
  inhibition ratio of colon shortening: 41.2%
  recovery rate of colon pathological sections (H&E): 56.7%
[1]; high-dose group (10 mg/kg), gavage once a day
  total mortality rate: no deaths occurred
[1]; low-dose group (1 mg/kg)
  efficiency of weight gain (body weight recovery): 13.6%
  inhibition ratio of colon shortening: 17.7%
  recovery rate of colon pathological sections (H&E): 33.0%
[1]; low-dose group (1 mg/kg), gavage once a day
  total mortality rate: 20%
[1]; medium-dose group (3 mg/kg)
  efficiency of weight gain (body weight recovery): 14.8%
  inhibition ratio of colon shortening: 29.4%
  recovery rate of colon pathological sections (H&E): 50.5%
[1]; medium-dose group (3 mg/kg), gavage once a day
  total mortality rate: no deaths occurred
IL-1β [4]
  inhibition ratio of IL-1β protein content in serum: 70.1%
IL-6 [5]
  inhibition ratio of IL-6 protein content in serum: 71.5%
IL-23 [6]; high dose (10 mg/kg)
  inhibition ratio of IL-23 mRNA in colon tissues: 58.2%
IL-23 [6]; low dose (1 mg/kg)
  inhibition ratio of IL-23 mRNA in colon tissues: 31.0%
IL-23 [6]; medium dose (3 mg/kg)
  inhibition ratio of IL-23 mRNA in colon tissues: 51.7%
[2]; 10 mg/kg
  colon length recovery rate (inhibition of colon shortening): 34.6%
  recovery rate of colon pathological sections (H&E): 65.6%
  DAI score inhibition ratio: 29.3%
  body weight recovery rate: 22.4%
TNF-α [7]
  inhibition ratio of TNF-α protein content in serum: 55.4%
TNF-α [8]
  IC50: 0.58 µM
[9]
  phosphorylation of key proteins Mnk1, MK2, and elF4E in the p38 signaling pathway: inhibiting, in a concentration dependent manner
IL-23 [10]
  inhibition ratio of IL-23 protein content in serum: 56.7%
TNF-α [11]; high dose (10 mg/kg)
  inhibition ratio of TNF-α mRNA in colon tissues: 68.5%
TNF-α [11]; low dose (1 mg/kg)
  inhibition ratio of TNF-α mRNA in colon tissues: 24.7%
TNF-α [11]; medium dose (3 mg/kg)
  inhibition ratio of TNF-α mRNA in colon tissues: 69.5%
TAK1
  phosphorylation of TAK1: no inhibition
IL-6 [12]
  inhibition ratio of IL-6 mRNA in colon tissues: 65.0%
IL-6 [13]; high dose (10 mg/kg)
  inhibition ratio of IL-6 mRNA in colon tissues: 48.6%
IL-6 [13]; low dose (1 mg/kg)
  inhibition ratio of IL-6 mRNA in colon tissues: 26.3%
IL-6 [13]; medium dose (3 mg/kg)
  inhibition ratio of IL-6 mRNA in colon tissues: 37.1%
IL-23 [14]
  inhibition ratio of IL-23 mRNA in colon tissues: 84.8%
TNF-α [15]; high dose (10 mg/kg)
  inhibition ratio of TNF-α protein content in serum: 61.9%
TNF-α [15]; low dose (1 mg/kg)
  inhibition ratio of TNF-α protein content in serum: 40.2%
TNF-α [15]; medium dose (3 mg/kg)
  inhibition ratio of TNF-α protein content in serum: 60.3%
IL-1β [16]; high dose (10 mg/kg)
  inhibition ratio of IL-1β protein content in serum: 51.8%
IL-1β [16]; low dose (1 mg/kg)
  inhibition ratio of IL-1β protein content in serum: 40.1%
IL-1β [16]; medium dose (3 mg/kg)
  inhibition ratio of IL-1β protein content in serum: 50.0%
IL-23 [17]; high dose (10 mg/kg)
  inhibition ratio of IL-23 protein content in serum: 64.4%
IL-23 [17]; low dose (1 mg/kg)
  inhibition ratio of IL-23 protein content in serum: 39.6%
IL-23 [17]; medium dose (3 mg/kg)
  inhibition ratio of IL-23 protein content in serum: 58.2%
IL-6 [18]; high dose (10 mg/kg)
  inhibition ratio of IL-6 protein content in serum: 57.6%
IL-6 [18]; low dose (1 mg/kg)
  inhibition ratio of IL-6 protein content in serum: 34.4%
IL-6 [18]; medium dose (3 mg/kg)
  inhibition ratio of IL-6 protein content in serum: 44.5%
IL-1β [19]; high dose (10 mg/kg)
  inhibition ratio of IL-1β mRNA in colon tissues: 43.8%
IL-1β [19]; low dose (1 mg/kg)
  inhibition ratio of IL-1β mRNA in colon tissues: 22.8%
IL-1β [19]; medium dose (3 mg/kg)
  inhibition ratio of IL-1β mRNA in colon tissues: 36.1%
IL-1β [20]
  inhibition ratio of IL-1β mRNA in colon tissues: 68.3%

## COc1ccc(C2CC(=O)c3cc(OC)cc(OC)c32)cc1 (racemic) [(±)-STU104]
TNF-α [3]
  inhibition ratio of TNF-α mRNA in colon tissues: 55.4%
IL-1β [4]
  inhibition ratio of IL-1β protein content in serum: 68.6%
IL-6 [5]
  inhibition ratio of IL-6 protein content in serum: 49.1%
[2]; 10 mg/kg
  colon length recovery rate (inhibition of colon shortening): 25.7%
  recovery rate of colon pathological sections (H&E): 48.3%
  DAI score inhibition ratio: 8.3%
  body weight recovery rate: 20.0%
TNF-α [7]
  inhibition ratio of TNF-α protein content in serum: 48.1%
TNF-α [8]
  IC50: 1.27 µM
IL-23 [10]
  inhibition ratio of IL-23 protein content in serum: 45.2%
IL-6 [12]
  inhibition ratio of IL-6 mRNA in colon tissues: 56.1%
IL-23 [14]
  inhibition ratio of IL-23 mRNA in colon tissues: 73.1%
IL-1β [20]
  inhibition ratio of IL-1β mRNA in colon tissues: 67.5%

## COc1ccc([C@@H]2CC(=O)c3cc(OC)cc(OC)c32)cc1 [(S)-STU104]
TNF-α [3]
  inhibition ratio of TNF-α mRNA in colon tissues: 22.0%
IL-1β [4]
  inhibition ratio of IL-1β protein content in serum: 18.1%
IL-6 [5]
  inhibition ratio of IL-6 protein content in serum: 32.6%
[2]; 10 mg/kg, compared with mesalazine 50 mg/kg
  improvement of acute UC symptoms: significantly lower than that in the mesalazine group
[2]; 10 mg/kg
  colon length recovery rate (inhibition of colon shortening): 14.5%
  recovery rate of colon pathological sections (H&E): 13.9%
TNF-α [7]
  inhibition ratio of TNF-α protein content in serum: 10.2%
IL-23 [10]
  inhibition ratio of IL-23 protein content in serum: 18.9%
IL-6 [12]
  inhibition ratio of IL-6 mRNA in colon tissues: 8.1%
IL-23 [14]
  inhibition ratio of IL-23 mRNA in colon tissues: 10.6%
IL-1β [20]
  inhibition ratio of IL-1β mRNA in colon tissues: 27.7%
